Data reported in US20070111258A1, “Compositions and methods for modulating the acute phase response” (priority 2005, published 2007).

Experiments:
[1] = tested on: human CREBH; test: Cleavage of flag-tagged human CREBH stably expressed in H2.35 cells (Western blot, cell fractionation); type: cell-based; details: H2.35 cells stably expressing flag-tagged human CREBH; 8 hours; BFA 0.5 μg/ml, TNFα 20 ng/ml, IL6 40 ng/ml, DTT 5 mM, Tg 0.5 μM, Tm 5 μg/ml
Protocol: FIG. 3 depicts the effects of ER stress on CREBH: proteolytic cleavage of CREBH to release its N-terminal fragment that translocates into the nucleus. (A) Illustration of transmembrane domains and lumenal domains of SREBP, ATF6, Luman and CREBH in human (hs), mouse (mm). The conserved residues for S1P and S2P recognition are highlighted. (B) Cleavage of CREBH in H2.35 cells under different stimuli. H2.35 cells stably expressing flag-tagged human CREBH were treated with 0.5 μg/ml BFA, 20 ng/ml TNFα, 40 ng/ml IL6, 5 mM DTT, 0.5 μM Tg or 5 μg/ml Tm for 8 hours. Untransfected H2.35 cells (lane 1) and the H2.35 cells that stably express human CREBH (lane 2) were cultured under normal conditions as control. Total cell lysates were collected for Western blot analysis by using an anti-flag monoclonal antibody (upper panel). Levels of α-actin were determined for control of protein loading (lower panel). (C) Cleavage of CREBH in H2.35 cells under Tm treatment for various time periods. The H2.35 cells stably expressing flag-tagged CREBH were cultured in the absence or presence of Tm (5 μg/ml) for 4, 8 or 12 hours. Membrane fractions were isolated from the total cell lysates, and were subjected to Western blot analysis of CREBH and calnexin, respectively. Nuclear fractions were isolated from the same total cell lysates and subjected to Western blot analysis of CREBH and PARP, respectively. (D) Translocation of CREBH in COS7 cells. COS7 cells were co-transfected with a construct expressing flag-tagged full-length CREBH (CREBH-F) or CREBH-ΔC and a construct expressing KDEL-RFP, and were then cultured in the absence or presence of Tm (5 μg/ml) for 4 hours. Cells were then stained with FITC-conjugated anti-flag antibody and subjected to Zeiss Confocal Microscope analysis. Magnification: 40×10.
For analysis of expression and cleavage of CREBH protein, total cell lysates were prepared from H2.35 cells or COS7 cells using Nonidet P-40 lysis buffer (1% NP-40, 50 mM Tris-HCl at pH 7.5, 150 mM NaCl, 0.05% SDS) supplemented with protease inhibitors (Complete Mini from Roche Applied Science), 0.1 mM sodium vanadate, and 1 mM sodium fluoride. Membrane and nuclear fractions of cell lysates were isolated as previously described (Dignam et al., 1983). The total cell lysate, membrane and nuclear fractions were subjected to SDS-PAGE and then analyzed by Western blot using anti-flag monoclonal antibody or other antibodies. Immunoprecipitation and Western blot analyses of ATF6 and CREBH interaction in 293T cells expressing flag-tagged CREBH protein were performed by using anti-human ATF6 and anti-flag antibodies. Total cell lysates from 293T cells transfected with control vector or pFlag-CREBH-ΔC were immunoprecipitated with anti-human ATF6 polyclonal antibody and anti-flag antibody, respectively. The immunoprecipitated cell lysates were then subjected to Western blotting by using anti-flag antibody to detect CREBH protein and using anti-human ATF6 antibody to detect ATF6 protein, respectively. The same total cell lysates were subjected to Western blotting by using anti-flag antibody to detect expression of CREBH protein in the transfected cells. For detecting endogenous CREBH protein in the liver extracts, an anti-mouse CREBH polyclonal antibody was raised in rabbits against a purified mouse CREBH peptide composed of amino acids 92-109 [[…]]. The rabbit anti-human ATF6 polyclonal antibody was generated in the inventor's laboratory. The anti-mouse calnexin monoclonal antibody and the anti-mouse monoclonal PRAP antibody were purchased from Stressgen Biotechnologies (Victoria, BC, Canada) and BD Bioscience (Mountain View, Calif., USA), respectively.

[2] = tested on: CREBH mRNA; test: CREBH mRNA induction in H2.35 cells (Northern blot, quantitative real-time RT-PCR); type: cell-based; details: murine H2.35 hepatoma cells; IL6 40 ng/ml, TNFα 20 ng/ml, IL1β 40 ng/ml, DTT 5 mM, Tg 0.5 μM, Tm 5 μg/ml, BFA 0.5 μg/ml; 4, 8, 12 hours
Protocol: FIG. 1 depicts the induction of expression of CREBH during fetal liver development and by proinflammatory cytokines. (A) Structural comparison of CREBH and ATF6. The domains are indicated by residue numbers of amino acids. (B) Northern blot analysis of CREBH mRNA levels in various tissues from mice. Tissue samples were collected from 3-month-old wild-type C57BL/6J mice. Levels of β-actin mRNA were determined for control of sample loading. (C) Expression profile of CREBH mRNA in fetal livers during embryogenesis. (D) Induction of CREBH mRNA in murine hepatoma cell line H2.35 under IL6 (40 ng/ml) stimulation for various time points. For panels A-D, experiments were performed at least 3 times and representative data are shown.
FIG. 2 depicts the analysis of gene expression in H2.35 cells. H2.35 cells were treated with 20 ng/ml TNFα, 40 ng/ml IL1β, 20 μg.ml LPS, 5 mM DTT, 0.5 μM Tg, 5 μg/ml Tm or 0.5 μg/ml BFA for 4, 8 and 12 hours, respectively. Levels of CREBH mRNA (A) and spliced XBP1 mRNA (B) in H2.35 were determined by quantitative real-time RT-PCR. Fold changes of mRNA induction were determined after normalization of the mRNA levels to internal control 18S ribosomal RNA levels. […] However, expression from the SAP or CRP promoter-reporter plasmids is sufficiently measurable in H2.35 cells so that it is possible to investigate transcriptional activation effects of CREBH on the CRP and SAP promoters by reporter assays in H2.35 cells. These reporter experiments are not possible in non-hepatocyte cell lines. However, for non-hepatocyte cell lines, such as wild-type and mutant CHO cells, CREBH cleavage and activation could be measured using the UPRE reporter assay. (C) Summary of stimuli that induce CREBH mRNA, NF-κB activation and the UPR in H2.35 and HepG2 cells. (D) Expression of BiP and GRP94 in H2.35 cells over-expressing CREBH or ATF6. H2.35 cells in a 35 mm collagen-coated plate were transfected with 1.5 μg empty DNA vector, vector expressing the nuclear form of CREBH (CREBH-N) or vector expressing nuclear form of ATF6 (ATF6 p50), respectively. Expression levels of BiP and GRP 94 were determined by Western blot analysis by using a murine and —BiP monoclonal antibody and a murine anti-GRP94 monoclonal antibody, respectively. The membranes were re-blotted with an anti-α-actin antibody for control of sample loading.
Northern blot analysis was performed according to standard procedures (Sambrook et al., 1989). ^32P-labeled probes were prepared using a random prime labeling system (Amersham Pharmacia, Piscataway, N.J., USA). A 210 bp mouse CREBH cDNA fragment, a 250 bp mouse CRP cDNA fragment and a 260 bp mouse SAP cDNA fragment were amplified from murine total RNA by reverse transcription-PCR system (Roche Applied Science), respectively, and were used as probes for Northern blot analyses. Total RNA (15 μg) per sample purified from cultured cells or murine tissues was used for Northern blot analysis. Quantitative real-time RT-PCR was performed as previously described (Back et al., 2005). Briefly, total cellular RNA prepared was reverse-transcribed to cDNA using a random primer (Applied Biosystems). The reaction mixture, containing SYBR Green PCR Master Mix (Applied Biosystems), was run in a 7900HT Fast Real-Time PCR System (Applied Biosystems). Real-time PCR primer sequences for quantification of murine XBP1 mRNA splicing are: the forward primer 5′-[…]-3′, and the reverse primer 5′-[…]-3′. Other primer sequences were designed by Primer Express (Applied Biosystems).

[3] = tested on: BiP, CHOP, EDEM, spliced XBP1, SAP and CRP mRNAs; test: UPR and APR mRNA induction in mouse liver after injection (quantitative real-time RT-PCR); type: in vivo; details: 24 hours after injection; for fold increases in UPR mRNA levels relative to those observed after injection of Tm: liver; for levels of spliced XBP1 mRNA and mRNA encoding EDEM in the liver: wild-type mice
Protocol: Levels of spliced XBP1 mRNA were determined by quantitative real-time RT-PCR (lower panel). […] (B) Induction of CRP, SAP, BiP and spliced XBP1 mRNAs in mice injected with Tm. C57BU6J mice at 3-months of age were injected intraperitoneally with Tm (2 mg/kg body weight) in 150 mM dextrose solution. Mice were injected with the same volume of dextrose solution as a control. Liver tissues were collected from mice at 24 hours after injection for RNA isolation. (C-E) Induction of the BiP, CHOP, EDEM, spliced XBP1, SAP and CRP mRNAs in mice challenged with IL6, IL1β, LPS or Tm. Wild-type C57B1/6J mice at 3-months of age were intraperitoneally injected with recombinant murine IL6 (25 ng/gram body weight), recombinant murine IL1β (25 ng/gram body weight), LPS (3 μg/gram body weight) or Tm (2 μg/gram body weight). Mice were injected with the same volume of NaCL (for panels C and D) or dextrose (for panels E) solution as controls. At 24 hours after injection, liver samples were collected for isolating total RNA. Quantitative real-time RT-PCR was used to determine the mRNA levels. Fold changes of mRNA induction were determined after normalization of the mRNA levels to internal control 18S ribosomal RNA levels. Each bar denotes the mean±S.D., n=5 mice per injection.
Quantitative real-time RT-PCR was performed as previously described (Back et al., 2005). Briefly, total cellular RNA prepared was reverse-transcribed to cDNA using a random primer (Applied Biosystems). The reaction mixture, containing SYBR Green PCR Master Mix (Applied Biosystems), was run in a 7900HT Fast Real-Time PCR System (Applied Biosystems). Real-time PCR primer sequences for quantification of murine XBP1 mRNA splicing are: the forward primer 5′-[sequence]-3′, and the reverse primer 5′-[sequence]-3′. Other primer sequences were designed by Primer Express (Applied Biosystems).

Row | Molecule | cleavage of CREBH to release a 50 kD N-terminal fragment [1] | induction of CREBH mRNA [2] | fold increases in UPR mRNA levels relative to those observed after injection of Tm [3] | levels of spliced XBP1 mRNA and mRNA encoding EDEM in the liver [3]
1 | C[C@H]1CCC/C=C/[C@@H]2C[C@H](O)C[C@H]2[C@H](O)/C=C/C(=O)O1 [BFA, Brefeldin A] | induced cleavage of CREBH | significantly induced |  | 
2 | C/C=C(/C)C(=O)O[C@H]1C(C)=C2[C@H]([C@@H]1OC(=O)CCCCCCC)[C@@](C)(OC(C)=O)C[C@H](OC(=O)CCC)[C@@]1(O)[C@H]2OC(=O)[C@@]1(C)O [Tg, thapsigargin] | significantly induced cleavage of CREBH | significantly induced |  | 
3 | O[C@H](CS)[C@H](O)CS (racemic) [DTT, dithiothreitol] | significantly induced cleavage of CREBH | significantly induced |  | 
4 | tumor necrosis factor α [TNFα] | neither of them significantly induced CREBH cleavage | induced in a time-dependent manner |  | 
5 | interleukin-6 (protein, UniProt P08505 25-211, looked up, pro-inflammatory cytokine; recombinant murine IL6 in vivo) Interleukin-6: FPTSQVRRGDFTEDTTPNRPVYTTSQVGGLITHVLWEIVEMRKELCNGNSDCMNNDDALAENNLKLPEIQRNDGCYQTGYNQEICLLKISSGLLEYHSYLEYMKNNLKDNKKDKARVLQRDTETLIHIFNQEVKDLHKIVLPTPISNALLTDKLESQKEWLRTKTIQFILKSLEEFLKVTLRSTRQT | neither of them significantly induced CREBH cleavage | induced in a time-dependent manner | approximately 50 % of those observed after injection of Tm | also increased
6 | IL1β: pro-inflammatory cytokine; recombinant murine IL1β in vivo (protein, UniProt P10749 118-269, looked up) Interleukin-1 beta: VPIRQLHYRLRDEQQKSLVLSDPYELKALHLNGQNINQQVIFSMSFVQGEPSNDKIPVALGLKGKNLYLSCVMKDGTPTLQLESVDPKQYPKKKMEKRFVFNKIEVKSKVEFESAEFPNWYISTSQAEHKPVFLGNNSGQDIIDFTMESVSS |  | induced in a time-dependent manner | approximately 50 % of those observed after injection of Tm | also increased
